Assay results as given in US11186589B2, “Cyanoindoline derivatives as NIK inhibitors” (Janssen Pharmaceutica NV, priority 2016, dated 2021).

Columns and labels:
[1] = test system: P-IKKα levels in L363 cells; assay: Effect of compounds on P-IKKα levels in L363 (NIK translocated multiple myeloma) cells; type: cell-based, human; settings: Homo sapiens, L-363, 2 h, 2 hr treatment, averaged values, read-out: Inhibition of pIKKα_L-363 (IC50 (nM))
Protocol: Effect of Compounds on P-IKKα Levels in L363 (NIK Translocated Multiple Myeloma) Cells
All compounds tested were dissolved in DMSO and further dilutions were made in culture medium. Final DMSO concentration was 1% (v/v) in cell assays. The human L363 cells (ATCC) were cultured in RPMI 1640 medium supplemented with GlutaMax and 10% fetal calf serum (PAA). Cells were routinely maintained at densities of 0.2×10^6 cells per ml—1×10^6 cells per ml at 37° C. in a humidified 5% CO2 atmosphere. Cells were passaged twice a week splitting back to obtain the low density. Cells were seeded in 96 well plates (Nunc 167008) at 2×10^6 per ml media in a volume of 75 μl per well plus 25 μl 1 μg/ml recombinant human B-cell activating factor (BAFF/BLyS/TNFSF13B). Seeded cells were incubated at 37° C. in a humidified 5% CO2 atmosphere for 24 hr. Drugs and/or solvents were added (20 μl) to a final volume of 120 μl. Following 2 hr treatment plates were removed from the incubator and cell lysis was achieved by the addition of 30 μl 5× lysis buffer followed by shaking on a plate shaker at 4° C. for 10 min. At the end of this incubation lysed cells were centrifuged at 800×g for 20 min at 4° C. and the lysate was assessed for P-IKKα levels by sandwich immuno-assay carried out in anti-rabbit antibody coated Mesoscale plates. Within an experiment, the results for each treatment were the mean of 2 replicate wells. For initial screening purposes, compounds were tested using an 8 point dilution curve (serial 1:3 dilutions). For each experiment, controls (containing MG132 and BAFF but no test drug) and a blank incubation (containing MG132 and BAFF and 10 μM ADS125117, a test concentration known to give full inhibition) were run in parallel. The blank incubation value was subtracted from all control and sample values. To determine the IC50 a sigmoidal curve was fitted to the plot of % inhibition of control P-IKKα levels versus Log10 compound concentration.

[2] = test system: JJN-3 cells; assay: Antiproliferative activity on JJN-3 (NIK translocated) multiple myeloma cells (CellTiter-Glo); type: cell-based, human; settings: Homo sapiens, JJN-3, 96 h, JJN-3 (NIK translocated) cells, 96 hr treatment, averaged values, read-out: JJN-3 Proliferation inhibition (IC50 (nM))
Method in brief: (§1)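 Cells in RPMI 1640 with 2 mM L-glutamine and 10% FCS, treated 96 hr at 37 °C with 9-point 1:3 dilution series, 0.3% DMSO final. Viability read by CellTiter-Glo luminescence, mean of 2 wells. Time-zero blank subtracted; growth expressed as % of untreated control.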

[3] = test system: KMS12-BM cells; assay: Antiproliferative activity on KMS12-BM (NIK WT) multiple myeloma cells (CellTiter-Glo); type: cell-based, human; settings: Homo sapiens, KMS-12-BM, 96 h, 96 hr treatment, averaged values, read-out: KMS-12 Proliferation inhibition (IC50 (nM))
Method in brief: as §1

[4] = molecular target: NIK/MAP3K14 (Homo sapiens (Human), UniProt Q99558); assay: Inhibition of auto-phosphorylation of recombinant human NF-kappaB-inducing kinase (NIK/MAP3K14) activity (AlphaScreen); type: biochemical; settings: averaged values over all measurements on all batches, 25 microM ATP
NIK/MAP3K14, sequence (Q99558 whole entry): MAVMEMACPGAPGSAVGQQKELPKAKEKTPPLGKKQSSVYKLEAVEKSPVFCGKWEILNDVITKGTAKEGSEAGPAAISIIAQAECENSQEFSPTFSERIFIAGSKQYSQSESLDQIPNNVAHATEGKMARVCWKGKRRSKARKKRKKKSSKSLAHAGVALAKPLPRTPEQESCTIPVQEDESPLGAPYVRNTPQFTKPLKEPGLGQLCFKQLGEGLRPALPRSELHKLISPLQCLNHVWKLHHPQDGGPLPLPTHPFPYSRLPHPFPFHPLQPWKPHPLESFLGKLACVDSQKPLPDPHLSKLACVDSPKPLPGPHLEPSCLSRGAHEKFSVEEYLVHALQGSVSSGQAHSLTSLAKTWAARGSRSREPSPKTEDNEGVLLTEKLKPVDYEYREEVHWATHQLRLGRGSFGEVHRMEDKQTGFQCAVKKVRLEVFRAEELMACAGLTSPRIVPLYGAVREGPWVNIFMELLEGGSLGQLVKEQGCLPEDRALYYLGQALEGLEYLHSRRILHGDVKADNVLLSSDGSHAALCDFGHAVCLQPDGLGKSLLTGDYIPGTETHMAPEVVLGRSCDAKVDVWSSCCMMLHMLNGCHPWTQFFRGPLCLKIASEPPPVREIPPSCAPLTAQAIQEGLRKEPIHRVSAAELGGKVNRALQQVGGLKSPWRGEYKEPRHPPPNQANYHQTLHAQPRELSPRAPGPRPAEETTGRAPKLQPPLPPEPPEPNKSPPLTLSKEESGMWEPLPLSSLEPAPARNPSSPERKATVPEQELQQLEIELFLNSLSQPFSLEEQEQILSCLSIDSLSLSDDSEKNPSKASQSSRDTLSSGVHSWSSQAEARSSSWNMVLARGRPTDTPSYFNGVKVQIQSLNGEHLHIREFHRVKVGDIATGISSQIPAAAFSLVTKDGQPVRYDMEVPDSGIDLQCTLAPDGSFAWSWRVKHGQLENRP
Method in brief: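 GST-tagged NIK (0.2 nM) auto-phosphorylation was run with 25 microM ATP in pH 7.5 Tris buffer with MgCl2 for 1 h at 25 °C. It was detected by AlphaScreen with anti-phospho-IKK Ser176/180 antibody. IC50 came from sigmoidal fits of blank-subtracted % inhibition versus log concentration.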

IC50 [1] [nM] | IC50 [2] [nM] | IC50 [3] [nM] | IC50 [4] [nM] | Structure (SMILES)
~1200 | 871 | 1380 | 7.1 | CCCCCc1cc2c(cc1Nc1nccc(-c3cc(C#N)c4c(c3)[C@@](C)(CO)CN4)n1)CCN(C)CC2 (mixture of isomers) [Compound 27]
76 | 3240 | ~5750 | 12 | COc1nc2c(cc1Nc1nccc(-c3cc(C#N)c4c(c3)C(C)(CC(F)F)CN4)n1)CN(C)CC2 (centres unmarked) [Compound 56]
28 | 676 | ~5890 | 4.9 | CC1(C)CCOc2c(Nc3nccc(-c4cc(C#N)c5c(c4)[C@@](C)(CO)CN5)n3)cnn21 [Compound 24b]
25 | 1700 | ~9550 | 9.5 | C[C@]1(CO)CNc2c(C#N)cc(-c3ccnc(Nc4cnn5c4C(=O)N(Cc4ccccc4)CC5)n3)cc21 [Compound 26b]
23 | 1740 | > 10000 | 10.5 | C[C@]1(CO)CNc2c(C#N)cc(-c3ccnc(Nc4cc5c(nc4OCC4CC4)CCOC5)n3)cc21 [Compound 34]
3 | 138 | > 10000 | 11.8 | CC1(CO)CNc2c(C#N)cc(-c3ccnc(Nc4cc(Cl)cc5c4OCC5)n3)cc21 (centres unmarked) [Compound 41]
3 | 309 | > 10000 | 3 | CC(C)N1CCn2ncc(Nc3nccc(-c4cc(C#N)c5c(c4)[C@@](C)(CO)CN5)n3)c2C1=O [Compound 17b]
4 | 52 | ~174 | 3.4 | C[C@]1(CO)CNc2c(C#N)cc(-c3ccnc(Nc4cnc5c(c4)CN(C4CC4)CC5)n3)cc21 [Compound 51]
